Results from patent publication US20150119410A1, “BIOMARKERS OF RESPONSE TO NAE INHIBITORS” (MILLENNIUM PHARMACEUTICALS, INC., priority 2011, published 2015).

How the values were obtained:
Assay in all cases: Cell line panel 1 viability screen
Type in all cases: cell-based
UMC-11 = UMC-11 (lung)
Protocol: (§1) To support clinical development and identify potential biomarkers of tumor sensitivity or resistance, two large cancer cell line panels (Panel 1, N=653 (McDermott et al. (2007) PNAS 104:19936-19941); Panel 2, N=240 (O'Day et al. (2010) Fourth AACR International Conference on Molecular Diagnostics in Cancer Therapeutic Development)) were treated with MLN4924 and cell viability data (IC50, EC50, and POC—Percentage of Control) were generated.
(§2) Panel 1 (McDermott et al., supra). The cell lines were exposed to three MLN4924 concentrations (20 nM, 200 nM, and 2 μM) for 72 hours. Viability, i.e., cell number, was quantified by measuring fluorescence of a cell-permeant nucleic acid stain. Mean of triplicate values for each sample were taken and compared to DMSO control to calculate percentage of control. In the results, control or no activity value is given a value of about 1, sensitivity is indicated by a value less than 1, with 0 as death of the entire cell population and resistance indicated by a value greater than 1. A continuum of viability values was obtained for each concentration, so some values were selected as cut-offs for final determination of sensitivity or resistance. For example, median POC values of less than the median value of all POC's recorded in the panel (<0.34) indicated sensitivity, values of 0.34 to 0.75 indicated borderline sensitivity, values greater than the 3rd quartile of all POC's in the panel (>0.75) insensitivity or resistance. […] Final judgment of cell line as sensitive, insensitive or resistant was determined by its viability at 2 μM.

MDA-MB-468 = MDA-MB-468 (breast)
Protocol: as §1, §2

SW 1463 = system: SW 1463
Protocol: as §1, §2

CAPAN-1 = CAPAN-1 (pancreas)
Protocol: as §1, §2

NCl-H1975 = NCl-H1975 (lung); 2 μM MLN4924, 72 hours; DMSO control about 1
Protocol: as §1, §2

FADU = FADU (upper aerodigestive tract)
Protocol: as §1, §2

HCT-15 = conditions: Homo sapiens; HCT-15 (intestine); 2 μM MLN4924, 72 hours; DMSO control about 1
Protocol: as §1, §2

SW837 = conditions: Homo sapiens; SW837 (intestine); 2 μM MLN4924, 72 hours; DMSO control about 1
Protocol: as §1, §2

KYSE-450 = KYSE-450 (oesophagus)
Protocol: as §1, §2

HCC1806 = HCC1806 (breast)
Protocol: as §1, §2

647-V = 647-V (urinary_tract)
Protocol: as §1, §2

SW620 = system: SW620
Protocol: as §1, §2

KP-4 = KP-4 (pancreas)
Protocol: as §1, §2

GAMG = GAMG (central nervous system)
Protocol: as §1, §2

SW1417 = conditions: Homo sapiens; SW1417 (intestine); 2 μM MLN4924, 72 hours; DMSO control about 1
Protocol: as §1, §2

MDA-MB-231 = MDA-MB-231 (breast)
Protocol: as §1, §2

CAL-27 = CAL-27 (upper aerodigestive tract)
Protocol: as §1, §2

KU-19-19 = KU-19-19 (urinary_tract)
Protocol: as §1, §2

MKN45 = MKN45 (stomach)
Protocol: as §1, §2

[1] = Homo sapiens, 2 μM MLN4924, 72 hours, DMSO control about 1

SMILES: NS(=O)(=O)OC[C@@H]1C[C@@H](n2ccc3c(N[C@H]4CCc5ccccc54)ncnc32)C[C@@H]1O [MLN4924, ((1S,2S,4R)-4-{4-[(1S)-2,3-dihydro-1H-inden-1-ylamino]-7H-pyrrolo[2,3-d]pyrimidin-7-yl}-2-hydroxycyclopentyl)methyl sulphamate]
- viability at 2 µM (UMC-11; [1]): 44.7%
- Phenotype (UMC-11; SMAD4 mutant): insensitive (values of 0.34 to 0.75 indicated borderline sensitivity)
- viability at 2 µM (MDA-MB-468; [1]): 29.6%
- Phenotype (MDA-MB-468; SMAD4 mutant): sensitive (median POC values of less than the median value of all POC's recorded in the panel (<0.34) indicated sensitivity)
- viability at 2 µM (SW 1463; Homo sapiens, SW 1463 / SW1463 (intestine), 2 μM MLN4924, 72 hours, DMSO control about 1): 89.6%
- Phenotype (SW 1463; SW1463 (Intestine), FBXW7 mutant): resistant (values greater than the 3rd quartile of all POC's in the panel (>0.75) insensitivity or resistance)
- Phenotype (CAPAN-1; SMAD4 mutant): sensitive?
- viability at 2 µM (CAPAN-1; [1]): 14.7%
- viability at 2 µM (NCl-H1975): 30.5%
- Phenotype (FADU; SMAD4 mutant): sensitive (median POC values of less than the median value of all POC's recorded in the panel (<0.34) indicated sensitivity)
- viability at 2 µM (FADU; [1]): 7.3%
- viability at 2 µM (HCT-15): 66.5%
- viability at 2 µM (SW837): 70.2%
- viability at 2 µM (KYSE-450; [1]): 14.3%
- Phenotype (KYSE-450; KDM6A mutant): sensitive (median POC values of less than the median value of all POC's recorded in the panel (<0.34) indicated sensitivity)
- Phenotype (HCC1806; KDM6A mutant): sensitive (median POC values of less than the median value of all POC's recorded in the panel (<0.34) indicated sensitivity)
- viability at 2 µM (HCC1806; [1]): 1.16%
- Phenotype (647-V; NF2 mutant): sensitive (median POC values of less than the median value of all POC's recorded in the panel (<0.34) indicated sensitivity)
- viability at 2 µM (647-V; [1]): 3.8%
- viability at 2 µM (SW620; Homo sapiens, SW-620, SW620 (intestine), 2 μM MLN4924, 72 hours, DMSO control about 1): 49.3%
- Phenotype (SW620; SW620 (large_intestine), SMAD4 mutant): insensitive (values of 0.34 to 0.75 indicated borderline sensitivity)
- viability at 2 µM (KP-4; [1]): 5.18%
- Phenotype (KP-4; SMAD4 mutant): sensitive (median POC values of less than the median value of all POC's recorded in the panel (<0.34) indicated sensitivity)
- Phenotype (GAMG; SMAD4 mutant): sensitive (median POC values of less than the median value of all POC's recorded in the panel (<0.34) indicated sensitivity)
- viability at 2 µM (GAMG; [1]): 7.21%
- viability at 2 µM (SW1417): 63.7%
- viability at 2 µM (MDA-MB-231; [1]): 52.8%
- Phenotype (MDA-MB-231; NF2 mutant): insensitive (values of 0.34 to 0.75 indicated borderline sensitivity)
- Phenotype (CAL-27; SMAD4 mutant): sensitive (median POC values of less than the median value of all POC's recorded in the panel (<0.34) indicated sensitivity)
- viability at 2 µM (CAL-27; [1]): 2.71%
- viability at 2 µM (KU-19-19; [1]): 5.8%
- Phenotype (KU-19-19; KDM6A mutant): sensitive (median POC values of less than the median value of all POC's recorded in the panel (<0.34) indicated sensitivity)
- viability at 2 µM (MKN45; Homo sapiens, MKN-45, 2 μM MLN4924, 72 hours, DMSO control about 1): 36.1%
- Phenotype (MKN45; SMAD4 mutant): insensitive (values of 0.34 to 0.75 indicated borderline sensitivity)
